From US10597388B2, “Pyridazinone herbicides” (FMC CORPORATION, priority 2014, dated 2020)

How the values were obtained:
Type in all cases: in vivo
[1] = system: pigweed (Amaranthus retroflexus); assay: Test A greenhouse herbicide test, pre- and postemergence
Method in brief: (§1)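 Seeds sown in loam–sand blend got a preemergence directed soil spray of compound in non-phytotoxic solvent with surfactant. Postemergence treatment was given at 2–10 cm, one- to two-leaf stage. After ~10 d in greenhouse, injury was rated visually vs untreated controls, 0 (no effect) to 100 (complete control).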

kochia (Kochia scoparia) = assay: as above
Method in brief: as §1

[2] = system: foxtail, giant (giant foxtail, Setaria faberii); assay: as above
Method in brief: as §1

[3] = system: ragweed (common ragweed, Ambrosia elatior); assay: as above
Method in brief: as §1

[4] = system: ryegrass, Italian (Italian ryegrass, Lolium multiflorum); assay: as above
Method in brief: as §1

[5] = system: wheat (Triticum aestivum); assay: as above; conditions: Postemergence; for Plant response rating, Wheat: 125 g ai/ha; for Wheat plant response rating: 500 g ai/ha, 0 to 100 scale, 0 is no effect, 100 is complete control
Method in brief: as §1

corn (Zea mays) = assay: as above; conditions: Postemergence; for Plant response rating, Corn: 125 g ai/ha; for Corn plant response rating: 500 g ai/ha, 0 to 100 scale, 0 is no effect, 100 is complete control
Method in brief: as §1

[6] = system: ragweed (common ragweed, Ambrosia elatior); assay: Test C greenhouse herbicide test, pre- and postemergence
Method in brief: (§2)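 Two application timings: at sowing into a soil/sand blend, and on 2–18 cm seedlings in peat-vermiculite potting mix. A non-phytotoxic, surfactant-containing solvent carried the compounds. Plants were compared with controls and rated visually on 0–100 after 13–15 d.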

[7] = system: oilseed rape (Brassica napus); assay: as above
Method in brief: as §2

[8] = system: johnsongrass (Sorghum halepense); assay: as above
Method in brief: as §2

[9] = Postemergence, 125 g ai/ha, visual rating after approx. 10 d, 0 to 100 scale (0 no effect, 100 complete control)
[10] = Postemergence, 500 g ai/ha, 0 to 100 scale, 0 is no effect, 100 is complete control
[11] = Preemergence, 125 g ai/ha, 0 to 100 scale where 0 is no effect and 100 is complete control
[12] = Preemergence, 500 g ai/ha, 0 to 100 scale, 0 no effect, 100 complete control
[13] = visual rating after approx. 10 d, 0 to 100 scale (0 no effect, 100 complete control)
[14] = Postemergence, 31 g ai/ha, 0 to 100 scale (0 no effect, 100 complete control)
[15] = Postemergence, 125 g ai/ha, scale 0 to 100, 0 is no effect, 100 is complete control
[16] = Postemergence, 250 g ai/ha, scale 0 to 100, 0 no effect, 100 complete control, 13 to 15 d
[17] = Preemergence, 31 g ai/ha, scale 0 to 100, 0 is no effect, 100 is complete control
[18] = Preemergence, 62 g ai/ha, scale 0 to 100, 0 is no effect, 100 is complete control
[19] = Preemergence, 125 g ai/ha, scale 0 to 100, 0 is no effect, 100 is complete control
[20] = Preemergence, 250 g ai/ha, scale 0 to 100, 0 no effect, 100 complete control
[21] = postemergence, 62 g ai/ha, scale 0 to 100, 0 no effect, 100 complete control
[22] = Postemergence, 125 g ai/ha, 0 to 100 scale where 0 is no effect and 100 is complete control
[23] = Preemergence, 500 g ai/ha, 0 to 100 scale where 0 is no effect and 100 is complete control
[24] = 0 to 100 scale where 0 is no effect and 100 is complete control

SMILES: Cc1cc(C)c2ccccc2c1-c1c(O)c(C)nn(C)c1=O [Compound 21]
- Plant response rating, Pigweed [1, 9]: 100
- Pigweed plant response rating [1, 10]: 100
- Pigweed plant response rating [1, 11]: 100
- Plant response rating, Pigweed [1, 12]: 100
- Plant response rating, Kochia (kochia (Kochia scoparia); [9]): 100
- Kochia plant response rating (kochia (Kochia scoparia); [10]): 100
- Kochia plant response rating (kochia (Kochia scoparia); [11]): 30
- Plant response rating, Kochia (kochia (Kochia scoparia); [12]): 90
- Plant response rating, Foxtail, Giant [2, 9]: 100
- Foxtail, Giant plant response rating [2, 10]: 100
- Foxtail, Giant plant response rating [2, 11]: 90
- Plant response rating, Foxtail, Giant [2, 12]: 100
- Plant response rating, Ragweed [3, 9]: 100
- Ragweed plant response rating [3, 10]: 100
- Ragweed plant response rating [3, 11]: 100
- Plant response rating, Ragweed [3, 12]: 100
- Plant response rating, Ryegrass, Italian [4, 9]: 100
- Ryegrass, Italian plant response rating [4, 10]: 100
- Ryegrass, Italian plant response rating [4, 11]: 100
- Plant response rating, Ryegrass, Italian [4, 12]: 100
- Plant response rating, Wheat [5, 13]: 10
- Wheat plant response rating [5]: 60
- Plant response rating, Corn (corn (Zea mays); [13]): 50
- Corn plant response rating (corn (Zea mays)): 60
- Ragweed plant response rating [6, 14]: 85
- Plant response rating, Ragweed [6, 15]: 90
- Plant response rating, Ragweed [6, 16]: 95
- Plant response rating, Ragweed [6, 17]: 95
- Plant response rating, Ragweed [6, 18]: 100
- Plant response rating, Ragweed [6, 19]: 100
- Ragweed plant response rating [6, 20]: 100
- Ragweed plant response rating [6, 21]: 90
- Oilseed Rape plant response rating [7, 14]: 65
- Plant response rating, Oilseed Rape [7, 15]: 100
- Plant response rating, Oilseed Rape [7, 16]: 100
- Plant response rating, Oilseed Rape [7, 17]: 90
- Plant response rating, Oilseed Rape [7, 18]: 100
- Plant response rating, Oilseed Rape [7, 19]: 100
- Oilseed Rape plant response rating [7, 20]: 100
- Oilseed Rape plant response rating [7, 21]: 80
- Johnsongrass plant response rating [8, 14]: 10
- Plant response rating, Johnsongrass [8, 15]: 20
- Plant response rating, Johnsongrass [8, 16]: 35
- Plant response rating, Johnsongrass [8, 17]: 10
- Plant response rating, Johnsongrass [8, 18]: 10
- Plant response rating, Johnsongrass [8, 19]: 35
- Johnsongrass plant response rating [8, 20]: 50
- Johnsongrass plant response rating [8, 21]: 20

SMILES: Cc1nn(C)c(=O)c(-c2c(C)sc3ccc(Br)cc23)c1O [Compound 22]
- Plant response rating, Pigweed [1, 9]: 100
- Pigweed plant response rating [1, 10]: 100
- Pigweed plant response rating [1, 11]: 100
- Plant response rating, Pigweed [1, 12]: 100
- Plant response rating, Kochia (kochia (Kochia scoparia); [9]): 100
- Kochia plant response rating (kochia (Kochia scoparia); [10]): 100
- Kochia plant response rating (kochia (Kochia scoparia); [11]): 70
- Plant response rating, Kochia (kochia (Kochia scoparia); [12]): 100
- Plant response rating, Foxtail, Giant [2, 9]: 60
- Foxtail, Giant plant response rating [2, 10]: 90
- Foxtail, Giant plant response rating [2, 11]: 70
- Plant response rating, Foxtail, Giant [2, 12]: 90
- Plant response rating, Ragweed [3, 9]: 90
- Ragweed plant response rating [3, 10]: 100
- Ragweed plant response rating [3, 11]: 90
- Plant response rating, Ragweed [3, 12]: 90
- Plant response rating, Ryegrass, Italian [4, 9]: 80
- Ryegrass, Italian plant response rating [4, 10]: 100
- Ryegrass, Italian plant response rating [4, 11]: 100
- Plant response rating, Ryegrass, Italian [4, 12]: 100
- Plant response rating, Wheat [5, 13]: 0
- Wheat plant response rating [5]: 0
- Plant response rating, Corn (corn (Zea mays); [13]): 0
- Corn plant response rating (corn (Zea mays)): 0
- Ragweed plant response rating [6, 14]: 70
- Plant response rating, Ragweed [6, 15]: 90
- Plant response rating, Ragweed [6, 16]: 100
- Plant response rating, Ragweed [6, 17]: 30
- Plant response rating, Ragweed [6, 18]: 75
- Plant response rating, Ragweed [6, 19]: 90
- Ragweed plant response rating [6, 20]: 100
- Ragweed plant response rating [6, 21]: 75
- Oilseed Rape plant response rating [7, 14]: 5
- Plant response rating, Oilseed Rape [7, 15]: 90
- Plant response rating, Oilseed Rape [7, 16]: 75
- Plant response rating, Oilseed Rape [7, 17]: 0
- Plant response rating, Oilseed Rape [7, 18]: 5
- Plant response rating, Oilseed Rape [7, 19]: 5
- Oilseed Rape plant response rating [7, 20]: 80
- Oilseed Rape plant response rating [7, 21]: 15
- Johnsongrass plant response rating [8, 14]: 5
- Plant response rating, Johnsongrass [8, 15]: 5
- Plant response rating, Johnsongrass [8, 16]: 5
- Plant response rating, Johnsongrass [8, 17]: 0
- Plant response rating, Johnsongrass [8, 18]: 0
- Plant response rating, Johnsongrass [8, 19]: 0
- Johnsongrass plant response rating [8, 20]: 0
- Johnsongrass plant response rating [8, 21]: 5

SMILES: Cc1ccc2sc(Br)c(-c3c(O)c(C)nn(C)c3=O)c2c1 [Compound 79]
- Plant response rating, Pigweed [1, 22]: 90
- Pigweed plant response rating [1, 10]: 90
- Pigweed plant response rating [1, 11]: 100
- Plant response rating, Pigweed [1, 23]: 100
- Plant response rating, Kochia (kochia (Kochia scoparia); [22]): 80
- Kochia plant response rating (kochia (Kochia scoparia); [10]): 90
- Kochia plant response rating (kochia (Kochia scoparia); [11]): 70
- Plant response rating, Kochia (kochia (Kochia scoparia); [23]): 90
- Plant response rating, Foxtail, Giant [2, 22]: 70
- Foxtail, Giant plant response rating [2, 10]: 80
- Foxtail, Giant plant response rating [2, 11]: 90
- Plant response rating, Foxtail, Giant [2, 23]: 90
- Plant response rating, Ragweed [3, 22]: 90
- Ragweed plant response rating [3, 10]: 90
- Ragweed plant response rating [3, 11]: 80
- Plant response rating, Ragweed [3, 23]: 80
- Plant response rating, Ryegrass, Italian [4, 22]: 80
- Ryegrass, Italian plant response rating [4, 10]: 90
- Ryegrass, Italian plant response rating [4, 11]: 80
- Plant response rating, Ryegrass, Italian [4, 23]: 100
- Plant response rating, Wheat [5, 24]: 0
- Wheat plant response rating [5]: 0
- Plant response rating, Corn (corn (Zea mays); [24]): 0
- Corn plant response rating (corn (Zea mays)): 0
- Ragweed plant response rating [6, 14]: 90
- Plant response rating, Ragweed [6, 15]: 98
- Plant response rating, Ragweed [6, 16]: 98
- Plant response rating, Ragweed [6, 17]: 90
- Plant response rating, Ragweed [6, 18]: 95
- Plant response rating, Ragweed [6, 19]: 98
- Ragweed plant response rating [6, 20]: 100
- Ragweed plant response rating [6, 21]: 95
- Oilseed Rape plant response rating [7, 14]: 20
- Plant response rating, Oilseed Rape [7, 15]: 70
- Plant response rating, Oilseed Rape [7, 16]: 80
- Plant response rating, Oilseed Rape [7, 17]: 0
- Plant response rating, Oilseed Rape [7, 18]: 35
- Plant response rating, Oilseed Rape [7, 19]: 30
- Oilseed Rape plant response rating [7, 20]: 30
- Oilseed Rape plant response rating [7, 21]: 25
- Johnsongrass plant response rating [8, 14]: 5
- Plant response rating, Johnsongrass [8, 15]: 10
- Plant response rating, Johnsongrass [8, 16]: 10
- Plant response rating, Johnsongrass [8, 17]: 10
- Plant response rating, Johnsongrass [8, 18]: 35
- Plant response rating, Johnsongrass [8, 19]: 40
- Johnsongrass plant response rating [8, 20]: 30
- Johnsongrass plant response rating [8, 21]: 5

SMILES: Cc1ccc2sc(C)c(-c3c(OC(=O)OC(C)C)c(C)nn(C)c3=O)c2c1 [Compound 66]
- Plant response rating, Pigweed [1, 22]: 80
- Pigweed plant response rating [1, 10]: 90
- Pigweed plant response rating [1, 11]: 100
- Plant response rating, Pigweed [1, 12]: 100
- Plant response rating, Kochia (kochia (Kochia scoparia); [22]): 90
- Kochia plant response rating (kochia (Kochia scoparia); [10]): 90
- Kochia plant response rating (kochia (Kochia scoparia); [11]): 60
- Plant response rating, Kochia (kochia (Kochia scoparia); [12]): 70
- Plant response rating, Foxtail, Giant [2, 22]: 70
- Foxtail, Giant plant response rating [2, 10]: 90
- Foxtail, Giant plant response rating [2, 11]: 60
- Plant response rating, Foxtail, Giant [2, 12]: 90
- Plant response rating, Ragweed [3, 22]: 70
- Ragweed plant response rating [3, 10]: 90
- Ragweed plant response rating [3, 11]: 80
- Plant response rating, Ragweed [3, 12]: 90
- Plant response rating, Ryegrass, Italian [4, 22]: 90
- Ryegrass, Italian plant response rating [4, 10]: 100
- Ryegrass, Italian plant response rating [4, 11]: 90
- Plant response rating, Ryegrass, Italian [4, 12]: 100
- Plant response rating, Wheat [5, 24]: 0
- Wheat plant response rating [5]: 0
- Plant response rating, Corn (corn (Zea mays); [24]): 0
- Corn plant response rating (corn (Zea mays)): 0
- Ragweed plant response rating [6, 14]: 85
- Plant response rating, Ragweed [6, 15]: 90
- Plant response rating, Ragweed [6, 16]: 100
- Plant response rating, Ragweed [6, 17]: 75
- Plant response rating, Ragweed [6, 18]: 85
- Plant response rating, Ragweed [6, 19]: 90
- Ragweed plant response rating [6, 20]: 95
- Ragweed plant response rating [6, 21]: 85
- Oilseed Rape plant response rating [7, 14]: 0
- Plant response rating, Oilseed Rape [7, 15]: 10
- Plant response rating, Oilseed Rape [7, 16]: 0
- Plant response rating, Oilseed Rape [7, 17]: 0
- Plant response rating, Oilseed Rape [7, 18]: 0
- Plant response rating, Oilseed Rape [7, 19]: 0
- Oilseed Rape plant response rating [7, 20]: 5
- Oilseed Rape plant response rating [7, 21]: 10
- Johnsongrass plant response rating [8, 14]: 5
- Plant response rating, Johnsongrass [8, 15]: 5
- Plant response rating, Johnsongrass [8, 16]: 15
- Plant response rating, Johnsongrass [8, 17]: 10
- Plant response rating, Johnsongrass [8, 18]: 25
- Plant response rating, Johnsongrass [8, 19]: 55
- Johnsongrass plant response rating [8, 20]: 65
- Johnsongrass plant response rating [8, 21]: 5
